US8063025B2, “Nucleoside prodrugs and uses thereof” (Metabasis Therapeutics, Inc., priority 2007, dated 2011)
Like-named read-outs stand apart in the source and are kept apart here.

Assays:
[1] = tested on: hepatitis C virus replicon; details: cited from earlier work
rat hepatocytes = assay: NTP generation in rat hepatocytes; assay type: in vitro ADME, male Wistar rats; details: for Rat hepatocyte NTP: Table 2
Description: Hepatocytes were prepared from male Wistar rats (250-300 g) according to the procedure of Berry and Friend (Berry, M. N.; Friend, D. S. J. Cell Biol. 1969, 43, 506-520) as modified by Groen (Groen, A. K.; Sips, H. J.; Vervoom, R. C.; Tager, J. M. Eur. J. Biochem. 1982, 122, 87-93). Hepatocytes (20 mg/mL wet weight, >85% trypan blue viability) were incubated at 37° C. in 2 mL of Krebs-bicarbonate buffer containing 20 mM glucose, and 1 mg/mL BSA for 2 h in the presence of 10 μM nucleoside or prodrug (from 10 mM stock solutions in DMSO, n>4).
Following the incubation of 4′-azidocytidine analogues, 1600 μL aliquot of the cell suspension was centrifuged and 300 μL of acetonitrile was added to the pellet, vortexed and sonicated until the pellet broke down. Then 200 μL of water was added to make a 60% acetonitrile solution. After 10 min centrifugation at 14,000 rpm, the resulting supernatant was transferred to a new vial and evaporated to near dryness in a Savant SpeedVac Plus at room temperature. The dried residue was reconstituted with 200 μL of water and the mixture was centrifuged for 10 min at 14,000 rpm. A mixture of 35 μL aliquot of supernatant and 35 μL of mobile phase A (20 mM N—N-dimethylhexylamine and 10 mM propionic acid in 20% methanol) was analyzed by LC-MS/MS (Applied Biosystems, API 4000) equipped with an Agilent 1100 binary pump and a LEAP injector. NTP was detected by using MS/MS mode (M-/78.8) and quantified based on comparison to a standard of 2′-C-methyladenosine-5′-triphosphate for 4′-azidocytidine and the compound described in Example 1.
Following incubation of the 4′-azidouridine analogues, 1600 μL aliquot of the cell suspension was centrifuged and 500 μL of acetonitrile containing 0.1 mg/mL dicyclohexylcarbodiimide (DCCD) and 0.1% ammonium hydroxide was added to the pellet and vigorously mixed by vortexing. Liver extracts were analyzed by LC-MS/MS using a Luna NH2 column (5 micron, 2×50 mm, Phenomenex) fitted with a SecurityGuard C18 guard column (5 micron, 4.0×2.0 mm, Phenomenex) and eluted with a gradient from mobile phase A (10 mM ammonium acetate in 50% acetonitrile) to B (1 mM ammonium acetate in 50% acetonitrile containing 1% concentrated ammonium hydroxide) at a flow rate of 0.6 mL/min. The injector temperature was set at 4° C. 4′-AUMP, 4′-AUDP, and […] were detected using the MS/MS mode (364.1/150.8 for 4′-AUMP, 444.1/176.8 for 4′-AUDP, and 524.1/158.9 for 4′-AUTP) and quantified by comparison of peak areas to standard curves obtained by spiking known concentrations of the analytes to blank liver extract.

HCV [2] = details: chimpanzee, 7 days, cited from earlier work
[3] = target: T1, HCV polymerase (NS5B570n-Con1) (Hepatitis C virus genotype 1b, UniProt Q9WMX2); assay: HCV NS5B RNA polymerase activity; assay type: biochemical, HCV Con1 strain
T1 construct: contains a 21 amino acid deletion at the C-terminus relative to the full-length HCV polymerase; 6-histidine (N); made in house; host or cells: E. coli BL21 (DE) pLysS, plasmid pET17b
Description: The enzymatic activity of HCV polymerase (NS5B570n-Con1) was measured as the incorporation of radiolabeled nucleotide monophosphates into acid insoluble RNA products. Unincorporated radiolabeled substrate was removed by filtration and scintillant was added to the washed and dried filter plate containing radiolabeled RNA product. The amount of RNA product generated by NS5B570-Con1 at the end of the reaction was directly proportional to the amount of light emitted by the scintillant.
The N-terminal 6-histidine tagged HCV polymerase, derived from HCV Con1 strain, genotype 1b (NS5B570n-Con1) contains a 21 amino acid deletion at the C-terminus relative to the full-length HCV polymerase and was purified from E. coli strain BL21 (DE) pLysS. The construct, containing the coding sequence of HCV NS5B Con1 (GenBank accession number AJ242654) was inserted into the plasmid construct pET17b, downstream of a T7 promoter expression cassette and transformed into E. coli. […]
The amount of light emitted from the scintillant was converted to counts per minute (CPM) on a Topcount® plate reader (Perkin-Elmer, Energy Range: Low, Efficiency Mode: Normal, Count Time: 1 min, Background Subtract: none, Cross talk reduction: Off).
Data was analyzed in Excel® (Microsoft®) and ActivityBase® (Idbs®). […] All data was expressed as a percentage of the positive control. […]

[4] = Evaluation of liver NTP levels in rat; assay type: in vivo, Sprague-Dawley or Wistar rats; details: i.v. administration as printed
HCV [5] = details: phase 2 study, 1500 mg BID for 14 days; cited from earlier work
[6] = Rat portal vein pharmacokinetic study; set-up: species or system Male Hanover-Wistar (HW) rats; details: in vivo, 7 mg/kg
Description: Pharmacokinetic analysis of the esters was carried out as described in Example 2. The calculated value for % Fhepatic is the ratio of measured of the quantity present in the post-hepatic
[formula] circulation (AUCjugular) to the pre-hepatic concentration (AUCportal). This value reflects uptake of the prodrug by hepatocytes. […] These values reflect observed concentrations of non-esterified drug phosphate 26a. The calculated value % Fgut is the ratio of the concentration
[formula] of 26a observed in the portal vein which directly reflects absorption through the gut compared to the concentration observed in the jugular vein after i.v. administration of the same dose. Increased absorption through the gut will increase the observed % Fgut.
Male Hanover-Wistar (HW) rats were obtained from Charles River Laboratories (Wilmington, Mass.). […] Plasma samples were extracted by protein precipitation and analyzed by liquid chromatography coupled to tandem mass spectrometry (LC/MS/MS) for concentrations of 26b, 26a and 20.
Pharmacokinetic parameters were calculated using a non-compartmental model in Watson software (Watson, Thermo Fisher, Waltham, Mass.). % Fhepatic was calculated from the dose-normalized area under the curve (AUC) values obtained from sampling either the portal or jugular vein after PO administration as follows: […]

Question: With `C[C@H](NP(=O)(OC[C@@]1(N=[N+]=[N-])O[C@@H](n2ccc(=O)[nH]c2=O)[C@H](O)[C@@H]1O)Oc1cccc2ccccc12)C(=O)OCc1ccccc1` (some centres unmarked) [Example R0142] as the compound, how does the EC50 [1] read?
Answer: Its EC50 is 220 nM.

Question: Which “Rat hepatocyte NTP” value (rat hepatocytes; 10 μM) does the source give for `[N-]=[N+]=N[C@]1(CO)O[C@@H](n2ccc(=O)[nH]c2=O)[C@H](O)[C@@H]1O` [4′-azidouridine] here?
Answer: Its value is “<LOQ”.

Question: What about the EC50 [1] of the same compound?
Answer: The EC50 was over 100000 nM.

Question: What about the “potency in the cell-based replicon assay” value [1] of the same compound?
Answer: The value was “inactive”.

Question: With `C[C@@]1(O)[C@H](O)[C@@H](CO)O[C@H]1n1ccc2c(N)ncnc21` [MK-0608] as the compound, how does the “reduction in viral titer” value (HCV [2]; intravenous dose of 2 mg/kg/day) read?
Answer: The value was over 5 log10.

Question: Which IC50 [3] does the source give for `[N-]=[N+]=N[C@]1(COP(=O)(O)O)O[C@@H](n2ccc(=O)[nH]c2=O)[C@H](O)[C@@H]1O` [4′-AU monophosphate] here?
Answer: Its IC50 is 218 nM.

Question: With `[N-]=[N+]=N[C@]1(CO[P@@]2(=O)OCC[C@@H](c3cccc(Cl)c3)O2)O[C@@H](n2ccc(N)nc2=O)[C@H](O)[C@@H]1O` [Example 1, 4′-azido-cis-5′-O-[4-(S)-(3-chlorophenyl)-2-oxo-1,3,2-dioxaphosphorinan-2-yl]-cytidine] as the compound, how does the “nucleoside triphosphate levels in treated rat hepatocytes” value (rat hepatocytes) read?
Answer: The value was “dose dependent increase”.

Question: What about the “NTP levels after administration to a rat” value [4] of the same compound?
Answer: The value was “very low levels”.

Question: Which “mean reduction in serum viral titer” value (HCV [5]) does the source give for `CC(C)C(=O)OC[C@@]1(N=[N+]=[N-])O[C@@H](n2ccc(N)nc2=O)[C@H](OC(=O)C(C)C)[C@@H]1OC(=O)C(C)C` [Example R1626] here?
Answer: Its value is 1.2 log10.

Question: Which “circulating diester after oral dosing” value [6] does the source give for `[N-]=[N+]=N[C@]1(COP2(=O)OCC[C@@H](c3ccc(Br)cc3F)O2)O[C@@H](n2ccc(=O)[nH]c2=O)[C@H](O)[C@@H]1O` (some centres unmarked) [Example 43] here?
Answer: Its value is “no circulating diester is observed”.

Question: With `CC(C)C(N)C(=O)O[C@@H]1[C@@H](CO)O[C@@H](n2ccc(N)nc2=O)[C@]1(C)O` (some centres unmarked) [NM283] as the compound, how does the “reduction in viral titer” value (HCV [2]; 16.6 mg/kg/day) read?
Answer: The value was 1.15 log10.

Question: Which “nucleoside triphosphate levels in treated rat hepatocytes” value (rat hepatocytes) does the source give for `[N-]=[N+]=N[C@]1(CO[P@@]2(=O)OCC[C@@H](c3cccc(Cl)c3)O2)O[C@@H](n2ccc(=O)[nH]c2=O)[C@H](O)[C@@H]1O` [Example 2, 4′-azido-cis-5′-O-[4-(S)-(3-Chlorophenyl)-2-oxo-1,3,2-dioxaphosphorinan-2-yl]uridine] here?
Answer: Its value is “dose dependent increase”.

Question: And the “NTP levels after administration to a rat” value [4]?
Answer: The value was “elevated levels”.

Question: Which “Rat hepatocyte NTP” value (rat hepatocytes; 10 μM) does the source give for `[N-]=[N+]=N[C@]1(CO)O[C@@H](n2ccc(N)nc2=O)[C@H](O)[C@@H]1O` [Example R1479, 4′-azidocytidine] here?
Answer: The value was “<LOQ”.

Question: What about the “nmol NTP/g @ 10 μM (±SEM)” value (rat hepatocytes; rat hepatocytes, 10 μM, 2 h, Table 4) of the same compound?
Answer: The value was “<LOQ”.

Question: And the EC50 [1]?
Answer: The EC50 was 1280 nM.

Question: And the “potency in the cell-based replicon assay” value [1]?
Answer: The value was “reasonable potency”.
